Among the data in patent publication US20220274947A1, “NOVEL HETEROARYL-TRIAZOLE COMPOUNDS AS PESTICIDES” (Bayer Aktiengesellschaft, priority 2019, published 2022) are mortality values, retold here.

What all share (assay type): in vivo
In assay [1] the test system is Nilaparvata lugens. The experiment in a line: Nilaparvata lugens spray test. The note with it: 96 h, rice plants, after 4 days; for mortality at 500 g/ha: application rate 500 g/ha; for mortality at 100 g/ha: application rate 100 g/ha. As to the method:
Nilaparvata lugens—Spray Test Solvent: 78.0 parts by weight of acetone • • 1.5 parts by weight of dimethylformamide Emulsifier: alkylarylpolyglycol ether
(§1) To produce a suitable preparation of active compound, 1 part by weight of active compound is mixed with the stated amount of solvents and is diluted with water, containing an emulsifier concentration of 1000 ppm, to the desired concentration. Further test concentrations are prepared by dilution with emulsifier containing water.
Rice plants (Oryza sativa) are sprayed with a preparation of the active ingredient of the desired concentration and the plants are infested with the brown planthopper (Nilaparvata lugens).
After 4 days mortality in % is determined. 100% means all planthoppers have been killed and 0% means none of the planthoppers have been killed.

The subject of assay [2] is Tetranychus urticae. The experiment in a line: Tetranychus urticae spray test, OP-resistant. The note with it: foliar, 144 h, application rate 100 g/ha, French bean leaf disks, after 6 days. As to the method:
Tetranychus urticae—Spray Test OP-Resistant Solvent: 78.0 parts by weight acetone • 1.5 parts by weight dimethylformamide Emulsifier: alkylarylpolyglycol ether
as §1
French bean (Phaseolus vulgaris) leaf disks infected with all instars of the two spotted spidermite (Tetranychus urticae), are sprayed with a preparation of the active ingredient of the desired concentration.
After 6 days mortality in % is determined. 100% means all spider mites have been killed and 0% means none of the spider mites have been killed.

The test system of assay [3] is Blattella germanica strain PAULINIA
The experiment in a line: Blattella germanica test (BLTTGE surface treatment & contact assay). The following applies: exposure 30 minutes, 24 hours after contact, read-out: efficacy (mortality); for mortality at 20 mg/m2: surface concentration 20 mg/m^2, glazed tile; for mortality at 4 mg/m2: surface concentration 4 mg/m^2, glazed tile. On the procedure: Blattella germanica Test (BLTTGE Surface Treatment & Contact Assay) Solvent: Aceton+2000 ppm rapeseed oil methyl ester (RME)
In order to produce a sufficient, active ingredient containing solution it is necessary to solve the test compound in the solvent-mix (acetone at 2 mg/ml/RME 2000 ppm). This solution is pipetted onto a glazed tile and after evaporation of the acetone, adult animals of the species Blattella germanica strain […] are placed onto the dried surface. The exposure time is 30 minutes. Mortality in percent (%) is determined 24 hours after contact of the insects to the treated surface. 100% mortality means that all tested insects are dead, whereas 0% means that no insect died.

Turning to `C[C@H](NC(=O)c1ccnc(C(F)(F)F)n1)c1ncnn1-c1ccc(C#N)cn1` [II-8], in assay [1], the mortality at 500 g/ha is 100%.

In the case of `C[C@H](NC(=O)c1cc(Cl)cc(C(F)F)c1)c1ncnn1-c1ccc(C#N)cn1` [II-12], the mortality at 100 g/ha in assay [2] worked out at 90%.

On to `C[C@H](NC(=O)c1cc(C(F)(F)F)cc(C(F)(F)F)c1)c1ncnn1-c1ccc(C(=O)N(C)C2CC2)cn1` [II-38, 6-(5-{(1S)-1-[3,5-bis(trifluoromethyl)benzamido]ethyl}-1H-1,2,4-triazol-1-yl)-N-cyclopropyl-N-methylnicotinamide], for which the mortality at 100 g/ha in assay [2] is 90%.

For `C[C@H](NC(=O)c1cc(Cl)cc(C(F)(F)F)c1)c1ncnn1-c1cc(-n2cncn2)ccn1` [II-43], the mortality at 500 g/ha in assay [1] amounted to 90%.

`C[C@H](NC(=O)c1cc(C(F)(F)F)cc(C(F)(F)F)c1)c1ncnn1-c1ccc(C(=O)N(C)CC2CC2)cn1` [II-73] came in with a mortality at 500 g/ha in assay [1] of 100%.

As for `C[C@H](NC(=O)c1cc(OC(F)F)cc(OC(F)F)c1)c1ncnn1-c1ccc(C#N)cn1` [II-77], in assay [3], the mortality at 20 mg/m2 was in the range of 80 to 100%.

Turning to `C[C@H](NC(=O)c1cc(Br)cc(C(F)F)c1)c1ncnn1-c1ccc(C#N)cn1` [II-83], in assay [3], the mortality at 20 mg/m2 lay within 80 to 100%.

In the case of `Cc1nc([C@H](C)NC(=O)c2cc(C(F)(F)F)cc(C(F)(F)F)c2)n(-c2ccc(C(=O)N(C)C3CC3)cn2)n1` [II-96], in assay [1], the mortality at 100 g/ha was 90%.

With `Cc1nc([C@H](C)NC(=O)c2cc(C(F)(F)F)cc(C(F)(F)F)c2)n(-c2ccc(C(=O)N(C)CC#N)cn2)n1` [II-99], the mortality at 100 g/ha in assay [1] and in assay [2] was 90% in each case.

For the molecule `C[C@H](NC(=O)c1cc(C(F)F)cc(C(F)F)c1)c1ncnn1-c1ccc(C#N)cn1` [II-101], the mortality at 20 mg/m2 in assay [3] was in the range of 80 to 100%.

Consider `C[C@H](NC(=O)c1cc(OC(F)(F)F)cc(C(F)F)c1)c1ncnn1-c1ccc(C#N)cn1` [II-111], for which, in assay [3], the mortality at 4 mg/m2 lay in the range of 80 to 100% and the mortality at 20 mg/m2 lay within 80 to 100%.

`C[C@H](NC(=O)c1cc(OC(F)F)cc(C(F)F)c1)c1ncnn1-c1ccc(C#N)cn1` [II-116]: in assay [3], the mortality at 4 mg/m2 is 80 to 100% and the mortality at 20 mg/m2 lay within 80 to 100%.
